Laboratory results reported in ChEMBL document CHEMBL1153303, “Iodine-catalyzed one-pot synthesis and antimalarial activity evaluation of symmetrically and asymmetrically substituted 3,6-diphenyl[1,2,4,5]tetraoxanes” (Bioorg Med Chem Lett, 2009).
pIC50: −log10 of the molar value.

Legend:
[1] = Selectivity index, ratio of IC50 for african green monkey (Cercopithecus aethiops) Vero cells to IC50 for Plasmodium falciparum D6; assay type: toxicity, cell-based; details: read-out: Ratio IC50
[2] = Selectivity index, ratio of IC50 for african green monkey (Cercopithecus aethiops) Vero cells to IC50 for Plasmodium falciparum W2; assay type: toxicity, cell-based; details: read-out: Ratio IC50
Vero = experiment: Cytotoxicity against african green monkey Vero cells up to 16.72 uM after 72 hrs by neutral red assay; assay type: cell-based; details: chlorocebus sabaeus
Plasmodium falciparum [3] = experiment: Antimalarial activity against chloroquine-resistant Plasmodium falciparum W2 in erythrocytes after 72 hrs by LDH activity; assay type: functional, organism-based; details: W2, 72 h
Plasmodium falciparum [4] = experiment: Antimalarial activity against chloroquine-sensitive Plasmodium falciparum D6 in erythrocytes after 72 hrs by LDH activity; assay type: functional, organism-based; details: D6, 72 h

Row | Compound | selectivity ratio [1] | selectivity ratio [2] | Activity (Vero) | pIC50 (Plasmodium falciparum [3]) | pIC50 (Plasmodium falciparum [4])
1 | Cc1ccc(C2OOC(c3ccc(C(C)C)cc3)OO2)cc1 (stereo not drawn) | > 26.4 | > 20.7 | Non-toxic | – | –
2 | CC(C)c1ccc(C2OOC(c3ccc(C(C)C)cc3)OO2)cc1 (stereo not drawn) | > 21.6 | > 14 | Non-toxic | – | –
3 | COC(=O)c1ccc(C2OOC(c3ccc(C)cc3)OO2)cc1 (stereo not drawn) | > 4 | > 2.5 | Non-toxic | 5.22 | 5.42
4 | CCCc1ccc(C2OOC(c3ccc(CCC)cc3)OO2)cc1 (stereo not drawn) | > 23.8 | > 19 | Non-toxic | – | –
5 | CCCCc1ccc(C2OOC(c3ccc(CCCC)cc3)OO2)cc1 (stereo not drawn) | > 3.7 | > 2.8 | Non-toxic | – | –
6 | Cc1ccc(C2OOC(c3ccc(C(C)(C)C)cc3)OO2)cc1 (stereo not drawn) | > 25.1 | > 19 | Non-toxic | – | –
7 | CCc1ccc(C2OOC(c3ccc(CC)cc3)OO2)cc1 (stereo not drawn) | > 15.9 | > 15.9 | Non-toxic | – | 6.00
8 | CCc1ccc(C2OOC(c3ccc(C)cc3)OO2)cc1 (stereo not drawn) | > 43.6 | > 36.7 | Non-toxic | – | –
9 | CCN(CC)CCCC(C)Nc1ccnc2cc(Cl)ccc12 (stereo not drawn) [CHLOROQUINE] | – | – | Non-toxic | – | –
10 | C[C@@H]1CC[C@H]2[C@@H](C)C(=O)O[C@@H]3O[C@@]4(C)CC[C@@H]1[C@]32OO4 [ARTEMISININ] | > 476 | > 1400 | Non-toxic | 7.82 | –
11 | CC(C)(C)c1ccc(C2OOC(c3ccc(C(C)(C)C)cc3)OO2)cc1 (stereo not drawn) | > 6.1 | > 3.4 | Non-toxic | – | –
12 | COc1ccc(C2OOC(c3ccc(C)cc3)OO2)cc1 (stereo not drawn) | > 21.6 | > 15.4 | Non-toxic | – | –
